The source of these data is PubChem BioAssay (NCI).

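1) Cells in 96-well plates. 2) Compound, 48 h, 5 concentrations. 3) Linear interpolation between surrounding doses. 4) Unreached endpoint = highest concentration. At the GI50, growth is halved. TGI: concentration producing complete growth inhibition.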 A value given as a limit tells only on which side of the number the result lay.

Some test systems named below: HL-60(TB) leukemia; HOP-92 NSCLC; UACC-257 melanoma; RPMI-8226 leukemia; IGROV1 ovarian; A549 NSCLC; SN12C renal; ACHN renal; RXF 393 renal; SNB-19 CNS.
Holding throughout (assay): NCI tumour cell line growth inhibition, 48 h

On to `CS(=O)(=O)OCc1c(O)c2c(c(O)c1COS(C)(=O)=O)C(=O)C=CC2=O`, for which the TGI with HL-60(TB) leukemia, with HOP-92 NSCLC, with UACC-257 melanoma, in the experiment with RPMI-8226 leukemia, in the experiment on IGROV1 ovarian and with A549 NSCLC was > 100 µM each time. Also, the TGI in the experiment on SN12C renal and in the experiment with ACHN renal was > 100 µM each time.

`Cc1ccc(S(=O)(=O)NCCSS(=O)(=O)c2ccc(C)cc2)cc1`: the TGI with RXF 393 renal is 99.3 µM; in the experiment on HOP-92 NSCLC, > 100 µM; with UACC-257 melanoma it was > 100 µM; in the experiment with SNB-19 CNS it was > 100 µM; in the experiment on A549 NSCLC it was 63.5 µM; in the experiment with SN12C renal, 86.3 µM. Besides, in the experiment with ACHN renal, the TGI was > 100 µM.

`O=C(/N=C/c1c(O)c2ccccc2oc1=O)NC1CCCCC1`: the TGI with RXF 393 renal, in the experiment with HL-60(TB) leukemia, in the experiment with HOP-92 NSCLC, with UACC-257 melanoma, with RPMI-8226 leukemia and in the experiment with IGROV1 ovarian was > 100 µM each time. In addition, the TGI in the experiment on SNB-19 CNS, in the experiment with A549 NSCLC, in the experiment on SN12C renal and with ACHN renal was > 100 µM in each case.

`CC(C)Cc1cccc(C(C)C)c1NC(=O)CCC(=O)N/N=C1\C(=N/NC(=O)CCC(=O)Nc2c(C(C)C)cccc2C(C)C)C(c2ccc3c(c2)OCO3)Oc2ccccc21` (stereo not drawn): the TGI in the experiment on RXF 393 renal, in the experiment with HL-60(TB) leukemia, in the experiment on HOP-92 NSCLC, in the experiment with UACC-257 melanoma, in the experiment with RPMI-8226 leukemia and with IGROV1 ovarian was > 100 µM each time. In addition, the TGI with SNB-19 CNS, in the experiment with A549 NSCLC, in the experiment on SN12C renal and in the experiment on ACHN renal was > 100 µM in each case.

For `CN(C)CCC(C(=O)C(C)(C)C)c1ccccn1` (stereo not drawn), the TGI in the experiment on RXF 393 renal, in the experiment with HL-60(TB) leukemia, with HOP-92 NSCLC, in the experiment on UACC-257 melanoma, with RPMI-8226 leukemia and in the experiment with IGROV1 ovarian was > 100 µM each time. Further, the TGI in the experiment on SNB-19 CNS, in the experiment on A549 NSCLC, in the experiment with SN12C renal and in the experiment on ACHN renal was > 100 µM each time.

With `O=c1cc(-c2nc3ccccc3[nH]2)[nH]c2nc(-c3nc4ccccc4[nH]3)cc(-c3ccc(Cl)cc3)c12`, the TGI in the experiment with RXF 393 renal is 35.8 µM; with HL-60(TB) leukemia it was 66.3 µM; in the experiment on HOP-92 NSCLC, 55 µM; in the experiment on UACC-257 melanoma, 69.3 µM; in the experiment on RPMI-8226 leukemia, 44 µM; in the experiment with IGROV1 ovarian it was 25.5 µM. Also, the TGI was > 100 µM in the experiment with SNB-19 CNS, 87.2 µM in the experiment on A549 NSCLC, 46.9 µM in the experiment on SN12C renal and 41.6 µM with ACHN renal.

With `ClCC1(CCl)COC1`, the TGI in the experiment with RXF 393 renal, in the experiment with HL-60(TB) leukemia, in the experiment with HOP-92 NSCLC, with UACC-257 melanoma, with SNB-19 CNS and in the experiment on A549 NSCLC was > 100 µM in each case. The TGI in the experiment on SN12C renal and in the experiment with ACHN renal was > 100 µM each time.

Consider `C[C@H](O)C(=O)SC[C@H](NC(=O)CC[C@@H](N)C(=O)O)C(=O)NCC(=O)O`, for which the TGI in the experiment on RXF 393 renal, with HOP-92 NSCLC, with UACC-257 melanoma, with RPMI-8226 leukemia, in the experiment with IGROV1 ovarian and in the experiment on SN12C renal was > 100 µM in each case. For the same molecule, the TGI with ACHN renal is > 100 µM.

Turning to `COc1ccc(-n2cc(-c3ccc(OC)c(OC)c3)nc2SCc2ccccc2)cc1Cl`, the GI50 was 16.9 µM in the experiment on RXF 393 renal; 12.9 µM in the experiment with HL-60(TB) leukemia; 6.13 µM with HOP-92 NSCLC; 7.23 µM in the experiment on UACC-257 melanoma; 4.38 µM with RPMI-8226 leukemia; 12.9 µM in the experiment on IGROV1 ovarian. Also, the GI50 was 32.5 µM in the experiment on SNB-19 CNS, 21.3 µM in the experiment with A549 NSCLC, 38.1 µM with SN12C renal and 38.9 µM in the experiment with ACHN renal. Further, the TGI is 82 µM in the experiment with RXF 393 renal; 37.7 µM with HL-60(TB) leukemia; 38.6 µM in the experiment on HOP-92 NSCLC; 38.3 µM in the experiment with UACC-257 melanoma; 20 µM in the experiment on RPMI-8226 leukemia; > 100 µM in the experiment with IGROV1 ovarian. Moreover, the TGI in the experiment with SNB-19 CNS, with A549 NSCLC, in the experiment on SN12C renal and with ACHN renal was > 100 µM in each case.

For the molecule `FC(F)(F)C1=NC(=NNc2nnc(-c3ccccc3)c(-c3ccccc3)n2)N=C(C(F)(F)F)C1`, the TGI in the experiment on RXF 393 renal is > 100 µM; with HL-60(TB) leukemia, 37.1 µM; with HOP-92 NSCLC it was > 87.3 µM; in the experiment with UACC-257 melanoma, > 100 µM; in the experiment on RPMI-8226 leukemia it was > 100 µM; with IGROV1 ovarian, > 100 µM. Also, the TGI with SNB-19 CNS, in the experiment with A549 NSCLC and in the experiment on SN12C renal was > 100 µM in each case.

Take `C=C1C(=O)OC2/C=C(\C)CC(O)/C=C(/CO)CC(OC(=O)/C(C)=C/C)C12` (stereo not drawn): the TGI amounted to 44.5 µM in the experiment on RXF 393 renal; 34.9 µM in the experiment with HL-60(TB) leukemia; 111 µM in the experiment on HOP-92 NSCLC; 202 µM in the experiment with UACC-257 melanoma; 17.4 µM in the experiment on RPMI-8226 leukemia; 121 µM in the experiment on IGROV1 ovarian. Further, the TGI with SNB-19 CNS was 353 µM; in the experiment with A549 NSCLC, 451 µM; with SN12C renal it was 437 µM.
